According to article PMC7154053, “Chemical, Metabolic, and Cellular Characterization of a FtsZ Inhibitor Effective Against Burkholderia cenocepacia” (Frontiers in Microbiology, 2020):
≈ marks a conversion by molar mass, not a printed value. Where two headings read alike, the source gives them in different places.

Columns and labels:
B. cenocepacia J2315 = test: Time-lapse microscopy, single-cell analysis in microfluidic device; type: cell-based, Burkholderia cenocepacia
Experimental: B. cenocepacia J2315 was cultured over-night in Middlebrook 7H9 broth, supplemented with 10% (v/v) DS enrichment (20 g dextrose, 8.5 g sodium chloride in 1 L water) and 5% (v/v) of a casamino acids solution (10 g casamino acids in 100 ml water). Cells were diluted 10-fold in the same fresh 7H9 medium, and 5 μl of the diluted cell suspension were inoculated into a custom-made microfluidic hexa-device, as previously described (Manina et al., [2019]). Silicone tubing (0.76 mm ID) was connected to each inlet and outlet ports of the hexa-device to enable medium circulation. Two 50 ml syringes were connected to the inlet tubing, and prewarmed 7H9 medium was pumped through the microfluidic device at 15 μl/min. The outlet tubing were inserted into a waste receptacle containing bleach. […] Bacteria were imaged in phase contrast, using a UPLFLN100XO2/PH3/1.30 objective (Olympus) and a high-speed sCMOS camera, with the help of an automated epifluorescence inverted microscope (DeltaVision Elite, GE Healthcare). The microscope was equipped with an environmental chamber maintained at 37°C. Images were recorded at 20-min intervals and up to 46 h. Exposure conditions were as follows: phase 50% T, 150 ms. In each experiment, 190 XY fields were imaged. The same experimental set-up was carried out twice.
Manual segmentation of individual cells and analysis of image stacks were performed using the ImageJ 1.52a software. The Selection Brush Tools was used to draw polygons corresponding to the shape of individual cells and to extract the cell planar area (μm^2). Measurements of the cell area were repeated throughout the generation time of individual cells, to calculate the growth rate by fitting an exponential curve.
Biphasic killing represents the typical pattern of drug persistence, whereby the initial linear mortality of the population is followed by a second phase where a subpopulation of cells is able to endure inhibitory drug concentrations in the absence of genetic mutations (Van den Bergh et al., [2017]). In contrast to drug-resistant cells, which continue to replicate in the presence of the drug, drug-persistent cells either derive from pre-existing non-growing cells or slow down their growth during drug exposure, and their progeny is killed with kinetics similar to that of the initial population (Van den Bergh et al., [2017]; Balaban et al., [2019]). […] To examine the C109 killing dynamics of B. cenocepacia at the single-cell level, we carried out a time-lapse microscopy experiment, divided into several steps. Wild type B. cenocepacia J2315 cells were first seeded into a microfluidic device (Manina et al., [2019]), and perfused with prewarmed 7H9 medium for 3 h, to allow the cells to adapt to the microfluidic environment. […] Cells were then perfused with C109-free 7H9 medium for 12 h, enabling the recovery and expansion of surviving cells. […] During the time-lapse imaging, cells were monitored every 20 min for a total of 46 h. The total number of cells, the single-cell area, and the number of division and lysis events were measured during each step of the experiment.

B. cenocepacia = test: Resazurin-based assay of BcNR reaction mixtures; type: cell-based, Burkholderia cenocepacia; conditions: BcNR reactions with 1 mM C109, with or without NADPH; C109 result: in the absence of NADPH
Text: To assess whether the resulting BcNR reduction product could inhibit B. cenocepacia growth, we carried out a resazurin-based assay.

P. aeruginosa = test: Checkerboard assay with efflux pump inhibitor PaβN MC-207.110; type: cell-based, Pseudomonas aeruginosa
Experimental: The microtiter plates were incubated at 37°C for 48 (for B. cenocepacia) or 24 h (for all the other strains) and growth was determined by the resazurin method (Martin et al., [2006]). A solution of resazurin sodium salt (Sigma Aldrich) was prepared at 0.01% in distilled water and filter-sterilized. Thirty microliter of resazurin solution were added to each well after 1 or 2 days of incubation at 37°C, and the microtiters were re-incubated at the same temperature for 4 h. The MIC was defined as the lowest concentration of the drug that prevented a change in color from blue to pink, which indicates bacterial growth. […] Three independent biological replicates were used for each MIC determination.

S. aureus ATCC 25923 = test: MIC, 2-fold microdilution, resazurin method; type: cell-based, Staphylococcus aureus; conditions: Staphylococcus aureus, ATCC25923
Experimental: Burkholderia cenocepacia strains, Escherichia coli ATCC 25922, Pseudomonas aeruginosa PAO1, and Staphylococcus aureus ATCC 25923 were grown in Luria-Bertani (LB) medium (Difco), if not differently specified, with shaking at 200 rpm, or on LB agar, at 37°C.
The microtiter plates were incubated at 37°C for 48 (for B. cenocepacia) or 24 h (for all the other strains) and growth was determined by the resazurin method (Martin et al., [2006]). A solution of resazurin sodium salt (Sigma Aldrich) was prepared at 0.01% in distilled water and filter-sterilized. Thirty microliter of resazurin solution were added to each well after 1 or 2 days of incubation at 37°C, and the microtiters were re-incubated at the same temperature for 4 h. The MIC was defined as the lowest concentration of the drug that prevented a change in color from blue to pink, which indicates bacterial growth.
Three independent biological replicates were used for each MIC determination.

[1] = target: Burkholderia cenocepacia purified FtsZ protein (Burkholderia cenocepacia, UniProt B4E5Y7); test: biochemical; type: biochemical; conditions: Yes/No
Burkholderia cenocepacia purified FtsZ protein, sequence (B4E5Y7 entry or part of it): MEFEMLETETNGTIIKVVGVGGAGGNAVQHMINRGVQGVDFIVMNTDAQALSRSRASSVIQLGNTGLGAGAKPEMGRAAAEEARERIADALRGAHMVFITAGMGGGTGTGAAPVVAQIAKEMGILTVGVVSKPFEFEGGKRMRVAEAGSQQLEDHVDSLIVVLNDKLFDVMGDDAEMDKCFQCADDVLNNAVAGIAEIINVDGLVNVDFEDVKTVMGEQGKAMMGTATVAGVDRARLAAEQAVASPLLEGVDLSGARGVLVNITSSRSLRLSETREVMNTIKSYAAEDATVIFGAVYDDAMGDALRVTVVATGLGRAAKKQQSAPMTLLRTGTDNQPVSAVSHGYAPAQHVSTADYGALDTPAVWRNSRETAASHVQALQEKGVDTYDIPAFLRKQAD
Experimental: All the recombinant FtsZ proteins were expressed at 20°C overnight in E. coli BL21(DE3) cells, upon induction with 0.5 mM IPTG, and purified using the same protocol assessed for the wild-type B. cenocepacia FtsZ (Hogan et al., [2018]).
GTPase enzyme activity was determined using a pyruvate kinase/L-lactic dehydrogenase (PK/LDH) spectrophotometric coupled assay (Ingerman and Nunnari, [2005]). The assays were performed at 30°C, in a reaction mixture containing […] Hepes pH 7.5, 5 mM MgCl2, 5 mM KCl, 10 U PK/LDH, 0.25 mM NADH, 0.25 mM PEP, and 5–10 μM FtsZ, and initiated by the addition of 0.5 mM GTP. Alternatively, GTPase activity was determined by measuring the release of phosphate using the malachite green assay (Baykov et al., [1988]).
(1) A[I]=A[0]×(1-[I]/[I]+IC50)
where A[I] is the enzyme activity at inhibitor concentration [I] and A[0] is the enzyme activity without inhibitor.

In the case of `COC(=O)CSc1ccc2nsnc2c1[N+](=O)[O-]` [C109, methyl [(4-nitro-2,1,3-benzothiadiazol-5-yl)thio]acetate], the “elongated cells that resumed normal growth during washout (possible persistent cells)” value (B. cenocepacia J2315; 8 of 3,000 elongated cells formed during first exposure) is reported as 0.27%, the “cells died from lysis, first treatment” value (B. cenocepacia J2315; C109 100 μg/ml (12.5X-MIC), 4 h) is reported as 70% and the “cells still able to grow with considerable filamentation, first treatment” value (B. cenocepacia J2315; C109 12.5X-MIC, 4 h) is reported as 3.5%. The “cells that stopped to divide (sensitive), second treatment” value (B. cenocepacia J2315; C109 12.5X-MIC, 24 h) was 94%, the “decline in cell population, second treatment” value (B. cenocepacia J2315; C109 12.5X-MIC, 24 h) was 92% and the “cells with elongated phenotype, second treatment” value (B. cenocepacia J2315; C109 12.5X-MIC, 24 h, of the total cell number) was ~6%. For the same molecule, the “filamentous cells that started again to divide during washout” value (B. cenocepacia J2315; C109 washout with fresh medium) was 30%, the “increase of cell area, cells dying by lysis” value (B. cenocepacia J2315; first treatment) was 2 fold and the “increase of cell area, filamentous cells” value (B. cenocepacia J2315; first treatment) was “up to 5 fold”. The “increase of cell area, elongated cells” value (B. cenocepacia J2315; second treatment, 8–10 μm^2) was “up to 10 fold”, the “activity against B. cenocepacia growth” value (B. cenocepacia) was “still active” and the MIC (P. aeruginosa; Pseudomonas aeruginosa, read-out: MIC in the presence of MC-207.110, P. aeruginosa) was 1 µg/mL. The “effect of combination with MC-207.110” value (P. aeruginosa; checkerboard, P. aeruginosa) was “synergistic effect”, the MIC (S. aureus ATCC 25923; LB, 24 h, read-out: MIC S. aureus 25923) was 4 µg/mL (≈ 14 µM) and the MIC (S. aureus ATCC 25923; Supplementary Table 1, read-out: MIC (µg/ml) S. aureus 25923) was 4 µg/mL (≈ 14 µM). The “Inhibition of Bc FtsZ At 100 μM” value ([1]; 100 μM compound) was “Yes” and the “Inhibits B. cenocepacia FtsZ GTPase at 100µM?” value ([1]; 100 µM, Supplementary Table 1) was “Yes”.
